US20030113810A1, “Novel assay” (priority 2000, published 2003)

Legend:
rGPR41 [1] = molecular target: T1, rGPR41 (Rattus norvegicus, UniProt B2GV46); experiment: Yeast FUS1-lacZ/FUS1-HIS3 reporter assay, rGPR41 in S. cerevisiae MMY22 (Gpa1/Gαo), FDG substrate; type: cell-based; set-up: expressed in transfected cells; host or cells: S. cerevisiae MMY22 (A1, A5; Gpa1/Gαo integrated) or MMY11 + pRS314-Gpa1/Gαo (A4), transformed with p426GPD-rGPR41; conditions: for EC50: read-out: Agonism @ rGPR41 Approx. EC50; for relative agonist activity at rGPR41 (in words): yeast MMY22, carboxylic acid series C1-C12, FIG. 8
T1 sequence (B2GV46 1-319): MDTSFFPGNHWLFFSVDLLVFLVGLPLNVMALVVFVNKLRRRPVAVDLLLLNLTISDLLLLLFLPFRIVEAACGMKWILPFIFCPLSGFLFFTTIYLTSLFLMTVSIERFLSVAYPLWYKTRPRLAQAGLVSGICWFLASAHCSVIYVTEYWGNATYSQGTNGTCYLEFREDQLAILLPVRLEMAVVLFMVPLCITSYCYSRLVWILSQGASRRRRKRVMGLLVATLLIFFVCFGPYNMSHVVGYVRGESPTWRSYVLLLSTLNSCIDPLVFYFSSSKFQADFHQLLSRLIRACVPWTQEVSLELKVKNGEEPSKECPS
Description: A study was carried out of the function of rGPR41 following expression in S. cerevisiae MMY22, which is a derivative of S. cerevisiae MMY11 containing a copy of the gene encoding the Gpa1/Gαo transplant chimera described above (in which the 5 C-terminal amino acids of Gpa1 are replaced with the 5 C-terminal amino acids of Gαo) integrated into the genome. To do this, a cassette comprising the GPA1 promoter, nucleotide sequence encoding Gpa1/Gαo, and the terminator was sub-cloned from pRS314-Gpa1/Gαo into the yeast integrating plasmid pRS304 (Sikorski and Hieter, 1989). The resulting plasmid pRS304-Gpa1/Gαo was transformed into MMY11 and integrated into the trp1 locus creating MMY22.
The rGPR41 expression construct described above, p462GPD-rGPR41 was introduced into MMY22 by transformation as described above. Four separate transformants were tested for reporter gene activation in response to propionate. Assays for FUS1-lacZ and FUS1-HIS3 induction were performed as described, except the β-galactosidase (lacZ) substrate fluorescein di-β-D-galactopyranoside (FDG) was used in place of CPRG, and 3-aminotriazole concentration was 5 mM. Also, black-walled 96-well microtitre plates were used, and fluorescence resulting from degradation of FDG to fluorescein due to β-galactosidase was determined using a Spectrofluor microtitre plate reader (Tecan)(excitation wavelength: 485 nm; emmision wavelength: 535 nm).
A series of carboxylic acids and other compounds related to propionate were tested for the ability to activate rGPR41. Experiments were performed as described above, using yeast cells of strain MMY22 transformed with rGPR41 expression plasmid p462GPD-rGPR41, except that the agonist propionate was replaced with one of a series of other compounds, which are listed in table 2 below.
(§1) In vivo assays of reporter gene induction were carried out by suspending MMY11 cells transformed as described above to a density of 0.02 OD600/ml in 200 μl SC-glucose (2%) medium lacking tryptophan, uracil and histidine. This medium was supplemented with 10 mM 3-aminotriazole and the β-galactosidase (lacZ) substrate chlorophenolred-β-D-galactopyranoside (CPRG; Boehringer Mannheim) to a concentration of 0.1 mg/ml. Additionally the medium was supplemented with various concentrations of the agonist ligand, propionate (sodium propionate, pH 7.0). To visualise the yellow to red colour change reaction occurring on degradation of CPRG due to β-galactosidase, the medium was buffered to pH 7 with 0.1 M sodium phosphate. The assay was conducted in flat-bottomed sterile 96-well microtitre plates. Plates were incubated for 24 hours at 30° C. without agitation, and absorbance at 570 nm was determined using a Spectrofluor microtitre plate reader (Tecan).

rGPR41 [2] = molecular target: T1, rGPR41; experiment: Yeast reporter assay, rGPR41 in MMY22, CPRG substrate (3-hydroxybutyrate study); type: cell-based; set-up: expressed in transfected cells; host or cells: S. cerevisiae MMY22 (A1, A5; Gpa1/Gαo integrated) or MMY11 + pRS314-Gpa1/Gαo (A4), transformed with p426GPD-rGPR41; conditions: for agonism at rGPR41 (in words): FIG. 9
Description: A study was made of the agonism of rGPR41 by the naturally-occurring ketone body compound, 3-hydroxybutyrate. Experiments were performed as described above, using yeast cells of strain MMY22 transformed with rGPR41 expression plasmid p462GPD-rGPR41, except that the substrate CPRG was used. Also, the agonist propionate was replaced with 3-hydroxybutyrate (β-hydroxybutyrate), either as a racemic mix of both stereoisomers, or as purified enantiomers D-3-hydroxybutyrate, or L-3-hydroxybutyrate.
as §1

human GPR41 = molecular target: T2, human GPR41 (Homo sapiens, UniProt O14843); conditions: membranes of HEK293T cells, human GPR41 + Go1α; FIG. 2-4
T2 sequence (O14843 1-346): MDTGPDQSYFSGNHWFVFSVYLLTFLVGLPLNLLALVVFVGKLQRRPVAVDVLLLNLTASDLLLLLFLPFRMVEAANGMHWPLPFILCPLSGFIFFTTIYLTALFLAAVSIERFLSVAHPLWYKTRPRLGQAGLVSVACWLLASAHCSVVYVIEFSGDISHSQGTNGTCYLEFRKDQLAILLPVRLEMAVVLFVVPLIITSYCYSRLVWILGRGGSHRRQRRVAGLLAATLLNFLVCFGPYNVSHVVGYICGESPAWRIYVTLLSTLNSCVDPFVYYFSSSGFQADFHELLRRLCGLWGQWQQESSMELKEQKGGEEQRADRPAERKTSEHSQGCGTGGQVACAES
Description: HEK293T cells (HEK293 cells stably expressing the SV40 large T-antigen) were maintained in DMEM containing 10% (v/v) foetal calf serum and 2 mM glutamine. Cells were seeded in 60 mm culture dishes and grown to 60-80% confluency (18-24 h) prior to transfection with pCDNA3 containing the relevant DNA species using Lipofectamine reagent. For transfection, 3 μg of DNA was mixed with 10 μl of Lipofectamine in 0.2 ml of Opti-MEM (Life Technologies Inc.) and was incubated at room temperature for 30 min prior to the addition of 1.6 ml of Opti-MEM. Cells were exposed to the Lipofectamine/DNA mixture for 5 h and 2 ml of 20% (v/v) newborn calf serum in DMEM was then added. Cells were harvested 48-72 h after transfection.
Plasma membrane-containing P2 particulate fractions were prepared from cell pastes frozen at −80° C. after harvest. All procedures were carried out at 4° C. Cell pellets were resuspended in 1 ml of 10 mM Tris-HCl and 0.1 mM EDTA, pH 7.5 (buffer A) and by homogenisation for 20 s with a polytron homogeniser followed by passage (5 times) through a 25-guage needle. Cell lysates were centrifuged at 1,000 g for 10 min in a microcentrifuge to pellet the nuclei and unbroken cells and P2 particulate fractions were recovered by microcentrifugation at 16,000 g for 30 min. P2 particulate fractions were resuspended in buffer A and stored at −80° C. until required. Protein concentrations were determined using the bicinchoninic acid (BCA) procedure (4) using BSA as a standard.
Assays were performed in 96-well format using a method modified from Wieland and Jakobs, 1994. Membranes (10 μg per point) were diluted to 0.083 mg/ml in assay buffer (20 mM HEPES, 100 mM NaCl, 10 mM MgCl2, pH7.4) supplemented with saponin (10 mg/l) and pre-incubated with 40 μM GDP. […] Non-specific binding was determined by the inclusion of 0.6 mM GTP. […] Plates were centrifuged at 1500 g for 5 min and bound [^35S]GTPγS was determined by scintillation counting on a Wallac 1450 microbeta Trilux scintillation counter.

[3] = yeast MMY22 with p462GPD-rGPR41, FDG fluorescence, compounds as salt solutions buffered to pH 7.0

Molecule	Agonism @ rGPR41 Approx. EC50 (M) (rGPR41 [1]; [3])	other results
O=C(O)CO [glycolate]	weak active	
CCCCCCCC/C=C\CCCCCCCC(=O)O [oleate]	Inactive	
C/C=C(\C)C(=O)O [tiglic acid]	Inactive	
O=C(O)CCCO [γ-hydroxybutyrate]		EC50 (rGPR41 [1]; [3]): ~10000 µM
C[C@H](N)C(=O)O [Alanine]	Inactive	
CCCCCCCCCCCC(=O)O [Lauric C12 acid]	inactive/toxic	relative agonist activity at rGPR41 (in words) (rGPR41 [1]): inactive
CC(C)C(=O)O [Isobutyrate]		EC50 (rGPR41 [1]; [3]): ~30 µM
CCCCCC/C=C\CCCCCCCC(=O)O [Palmitoleic acid]	Toxic/inactive	
C[C@@H](O)CC(=O)O [D-b-Hydroxybutyrate]		agonism at rGPR41 (in words) (rGPR41 [2]): similarly active to the racemic mix DL-3-hydroxybutyrate; EC50 (rGPR41 [1]; [3]): ~10000 µM
methyl-2-imidazoline	Toxic/inactive	
C[C@H](O)CC(=O)O [L-b-Hydroxybutyrate]		EC50 (rGPR41 [1]; [3]): ~10000 µM
CCCCCCCCCCC(=O)O [Undecanoic C11 acid]	inactive/toxic	relative agonist activity at rGPR41 (in words) (rGPR41 [1]): inactive
CCCC(=O)O [n-Butyrate]		EC50 (rGPR41 [1]; [3]): ~50 µM
O=C(O)CC(O)(CC(=O)O)C(=O)O [Citrate]	Inactive	relative agonist activity at rGPR41 (in words) (rGPR41 [1]): either inactive or had very weak activities
O=CO [Formate]		Agonism @ rGPR41 Approx. EC50 (M) (rGPR41 [1]; pH 7): Weak active
CCC(O)C(=O)O (stereo not drawn) [alpha-hydroxybutyrate]	Inactive	
CCCCCCC(=O)O [Heptanoic C7 acid]		EC50 (rGPR41 [1]; [3]): ~100 µM
CCCCCCCC(=O)O [Caprylic C8 acid]	weak active	
O=C(O)/C=C\C(=O)O [maleate]	Inactive	
O=CC=O [Glyoxal]		Agonism @ rGPR41 Approx. EC50 (M) (rGPR41 [1]; pH 7): Toxic
O=C(O)CCC(=O)O [Succinate]	Inactive	relative agonist activity at rGPR41 (in words) (rGPR41 [1]): either inactive or had very weak activities
CS(=O)(=O)O [methylsulphonate]	Inactive	
CC(C)=O [Acetone]		Agonism @ rGPR41 Approx. EC50 (M) (rGPR41 [1]; pH 7): Inactive
O=C1O[C@H]([C@@H](O)CO)C(O)=C1O [Ascorbate]	Inactive	
CCCCCCCCCC(=O)O [Decanoic C10 acid]	inactive/toxic	relative agonist activity at rGPR41 (in words) (rGPR41 [1]): inactive
CC(N)=O [acetamide]	very weak active	

Molecule	Agonism @ rGPR41 Approx. EC50 (M) (rGPR41 [1]; [3])	other results
CC(O)C(=O)O (stereo not drawn) [lactate]	Inactive	
CC(C)(C)C(=O)O [pivalic acid]		EC50 (rGPR41 [1]; [3]): ~500 µM
CCCCC/C=C\C/C=C\CCCCCCCC(=O)O [Linoleic acid]	Toxic/Inactive	
CC(O)CC(=O)O (racemic) [DL-b-Hydroxybutyrate]		stimulation of [35S]GTPγS binding (human GPR41): elevate [^35S]GTPγS binding; agonism at rGPR41 (in words) (rGPR41 [2]): agonist at rGPR41 with a potency similar or slightly less than acetate; lowest concentrations causing detectable activation of rGPR41 (threshold) (rGPR41 [2]; FIG. 9, listed as 3-hydroxybutyrate): approximately 1 mM; EC50 (rGPR41 [1]; [3]): ~10000 µM
CCCCCC(=O)O [Caproic C6 acid]		EC50 (rGPR41 [1]; [3]): ~30 µM
N[C@@H](CCC(=O)O)C(=O)O [Glutamate]	Inactive	
O=C(O)CC(=O)C(=O)O [Oxaloacetate]	Inactive	
O=C(O)C(F)(F)F [Trifluoroacetate]	weak active	
CCCCC(=O)O [Pentanoate (n-valerate)]		relative agonist activity at rGPR41 (in words) (rGPR41 [1]): similarly or slightly more active than propionate; EC50 (rGPR41 [1]; [3]): ~3 µM
O=CC(=O)O [Glyoxylic acid]		EC50 (rGPR41 [1]; [3]): ~50000 µM
NCC(=O)O [Glycine]	Inactive	
CN[C@H](CC(=O)O)C(=O)O [NMDA]	Inactive	
C=CCCC(=O)O [4-pentenoate]		EC50 (rGPR41 [1]; [3]): ~30 µM
O=C(O)C(O)C(O)C(=O)O (stereo not drawn) [Tartrate]	Inactive	
O=C(O)C(=O)O [Oxalate]		EC50 (rGPR41 [1]; [3]): ~3000 µM
NCCCC(=O)O [GABA]	Inactive	
CC(=O)CC(=O)O [Acetoacetate]	weak active	
CCCCCCCCC(=O)O [Nonanoic C9 acid]	inactive/toxic	relative agonist activity at rGPR41 (in words) (rGPR41 [1]): inactive
CCCCCCCCCCCCCCCC(=O)O [palmitate]	Inactive	
O=C(O)c1ccccc1 [benzoate]		Agonism @ rGPR41 Approx. EC50 (M) (rGPR41 [1]; pH 7): Toxic
O=C(O)c1cccnc1 [nicotinic acid]		Agonism @ rGPR41 Approx. EC50 (M) (rGPR41 [1]; pH 7): Inactive
CC(=O)C(=O)O [pyruvate]	Inactive	
O=C(O)/C=C/C(=O)O [Fumarate]	Inactive	relative agonist activity at rGPR41 (in words) (rGPR41 [1]): either inactive or had very weak activities
O=C(O)CC(=O)O [malonate]	Inactive	
CCCCCCCCCCCCCCCCCC(=O)O [stearate]	Inactive	
